# Laboratory results reported in patent US20250011307A1, “CRYSTALLINE FORMS OF BIARYL YAP/TAZ-TEAD PROTEIN-PROTEIN INTERACTION INHIBITORS” (Novartis AG, priority 2021, published 2025).
# Key:
# Assay type in all cases: physicochemical
# [1] = Solid state bulk stability stress test (HPLC degradation products, color, XRPD); parameters: key to CL color: A: No change; B: Slight discoloration; C: Medium discoloration; D: Strong discoloration; conditions: Compound A forms
# [2] = Xenon light stress test of bulk (HPLC degradation products, color, XRPD); parameters: key to CL color: A: No change; B: Slight discoloration; C: Medium discoloration; D: Strong discoloration; conditions: Compound A forms, Xenon light (1200 kLuxh, 25° C.)
# Method: (§1) X-ray powder diffraction (XRPD) patterns were obtained using a Bruker Advance D8 in reflection geometry. Powders were analyzed using a zero background Si flat sample holder. The radiation used was Cu Kα (A=1.5418 Å). Patterns were measured between 2° and 40° 2theta. • Sample amount: 5-10 mg • Sample holder: zero background Si flat sample holder
# as §1, with “radiation” for “radiation used”, “(λ=1.5418” for “(A=1.5418”
# [3] = Excipient compatibility stress test (HPLC degradation products, color); parameters: key to CL color: A: No change; B: Slight discoloration; C: Medium discoloration; D: Strong discoloration; conditions: Compound A forms
# [4] = Solubility after equilibration at 25° C. for 24 h, with final pH and XRPD of solid residues; conditions: Compound A forms
# [5] = Hygroscopicity (loss on drying by TGA and XRPD, as is and after storage at 92% / 80% RH); conditions: Compound A forms; for Loss on drying by TGA [%]: TGA temperature per cell: Modification A 110° C., amorphous 119° C., 4-hydroxybenzoate 200° C.
# [6] = 2 weeks 50° C./75% RH, 1% in mixture 1
# [7] = 2 weeks 50° C./75% RH, 1% in mixture 2
# [8] = 2 weeks 50° C./75% RH, 1% in mixture 3
# [9] = 2 weeks 50° C./75% RH, HGC capsule powder
# [10] = 2 weeks 50° C./75% RH, HPMC capsule powder
# [11] = 2 weeks 70° C./11% RH, 1% in mixture 1
# [12] = 2 weeks 70° C./11% RH, 1% in mixture 2
# [13] = 2 weeks 70° C./11% RH, 1% in mixture 3
# [14] = 2 weeks 70° C./11% RH, HGC capsule powder
# [15] = 2 weeks 70° C./11% RH, HPMC capsule powder
# [16] = 2 weeks 70° C./75% RH, 1% in mixture 1
# [17] = 2 weeks 70° C./75% RH, 1% in mixture 2
# [18] = 2 weeks 70° C./75% RH, 1% in mixture 3
# [19] = 2 weeks 70° C./75% RH, HPC capsule powder
# [20] = 2 weeks 70° C./75% RH, HPMC capsule powder
# [21] = FaSSIF V2 pH 6.5, target concentration 20 mg/10 mL
# [22] = FeSSIF V2 pH 5.8, target concentration 20 mg/10 mL
# [23] = SGF pH 2.0, target concentration 20 mg/10 mL
# [24] = Water, target concentration 20 mg/10 mL
# [25] = pH 1.2, 100 mM HCl, target concentration 20 mg/10 mL
# [26] = pH 3.0, 50 mM citrate buffer, target concentration 20 mg/10 mL
# [27] = pH 4.7, 50 mM acetate buffer, target concentration 20 mg/10 mL
# [28] = pH 6.8, 50 mM phosphate buffer with 50 mM Na taurocholate
# [29] = pH 6.8, 50 mM phosphate buffer with 50 mM Na taurocholate, target concentration 20 mg/10 mL
# [30] = pH 6.8, 50 mM phosphate buffer, target concentration 20 mg/10 mL
# [31] = Hygroscopicity, before RH storage
structure (smiles),measurement,setting,value
"CNC(=O)c1cnc(OCCO)c(F)c1-c1c(Cl)c(F)cc2c1C[C@](c1ccccc1)([C@@H]1CCCN1)O2 [Compound A Free form Modification A, 4-((2S,4S)-5-Chloro-6-fluoro-2-phenyl-2-((S)-pyrrolidin-2-yl)-2,3-dihydrobenzofuran-4-yl)-5-fluoro-6-(2-hydroxyethoxy)-N-methylnicotinamide]",Bulk (XRPD),[1]; 2 weeks 50° C./75% RH,No change
same,CL color,[1]; 2 weeks 50° C./75% RH,A
same,"DP[%] degradation products, Bulk (HPLC)",[1]; 2 weeks 50° C./75% RH,1.3%
same,Bulk (XRPD),"[1]; 2 weeks 80° C., 11% RH",No change
same,CL color,"[1]; 2 weeks 80° C., 11% RH",A
same,"DP[%] degradation products, Bulk (HPLC)","[1]; 2 weeks 80° C., 11% RH",1.4%
same,Bulk (XRPD),[1]; 2 weeks 80° C./75% RH,gel
same,"DP[%] degradation products, Bulk (HPLC)",[1]; 2 weeks 80° C./75% RH,12.6%
same,Bulk amber vial (XRPD),[2]; amber vial,No change
same,CL color,[2]; amber vial,A
same,"DP[%] degradation products, Bulk amber vial (HPLC)",[2]; amber vial,1.0%
same,Bulk clear vial (XPRD),[2]; clear vial,No change
same,CL color,[2]; clear vial,B
same,"DP[%] degradation products, Bulk clear vial (HPLC)",[2]; clear vial,4.1%
same,CL color,[3]; [6],A
same,DP[%] degradation products,[3]; [6],1.4%
same,CL color,[3]; [7],A
same,DP[%] degradation products,[3]; [7],2.5%
same,CL color,[3]; [8],A
same,DP[%] degradation products,[3]; [8],1.4%
same,CL color,[3]; [9],A
same,DP[%] degradation products,[3]; [9],1.2%
same,CL color,[3]; [10],A
same,DP[%] degradation products,[3]; [10],1.7%
same,CL color,[3]; [11],A
same,DP[%] degradation products,[3]; [11],1.3%
same,CL color,[3]; [12],A
same,DP[%] degradation products,[3]; [12],1.2%
same,CL color,[3]; [13],A
same,DP[%] degradation products,[3]; [13],1.1%
same,CL color,[3]; [14],A
same,DP[%] degradation products,[3]; [14],1.2%
same,CL color,[3]; [15],A
same,DP[%] degradation products,[3]; [15],1.5%
same,CL color,[3]; [16],gel
same,DP[%] degradation products,[3]; [16],6.1%
same,CL color,[3]; [17],gel
same,DP[%] degradation products,[3]; [17],7.8%
same,CL color,[3]; [18],gel
same,DP[%] degradation products,[3]; [18],11.8%
same,CL color,[3]; [19],gel
same,DP[%] degradation products,[3]; [19],3.3%
same,CL color,[3]; [20],gel
same,DP[%] degradation products,[3]; [20],6.6%
same,final pH,[4]; FaSSIF V2 pH 6.5,(8.07)
same,Sol. (solubility),[4]; [21],"~2, mg/mL"
same,final pH,[4]; FeSSIF V2 pH 5.8,(5.98)
same,Sol. (solubility),[4]; [22],">2, mg/mL"
same,final pH,[4]; SGF pH 2.0,(2.39)
same,Sol. (solubility),[4]; [23],">2, mg/mL"
same,final pH,[4]; Water,(9.12)
same,Sol. (solubility),[4]; [24],"0.27, mg/mL"
same,final pH,"[4]; pH 1.2, 100 mM HCl",(1.16)
same,Sol. (solubility),[4]; [25],">2, mg/mL"
same,final pH,"[4]; pH 3.0, 50 mM citrate buffer",(3.10)
same,Sol. (solubility),[4]; [26],">2, mg/mL"
same,final pH,"[4]; pH 4.7, 50 mM acetate buffer",(4.86)
same,Sol. (solubility),[4]; [27],">2, mg/mL"
same,final pH,"[4]; pH 6.8, 50 mM phosphate buffer",(6.95)
same,final pH,[4]; [28],(6.91)
same,Sol. (solubility),[4]; [29],">2, mg/mL"
same,Sol. (solubility),[4]; [30],">2, mg/mL"
same,XRPD,[5]; After 1 day at 80% RH,No change
same,Loss on drying by TGA [%],[5]; After 1 day at 80% RH,0.7% (110° C.)
same,XRPD,[5]; After 1 day at 92% RH,No change
same,Loss on drying by TGA [%],[5]; After 1 day at 92% RH,1.0% (110° C.)
same,Loss on drying by TGA [%],[5]; [31],0.4% (110° C.)
"CNC(=O)c1cnc(OCCO)c(F)c1-c1c(Cl)c(F)cc2c1C[C@](c1ccccc1)([C@@H]1CCCN1)O2 [Compound A Free form amorphous, 4-((2S,4S)-5-Chloro-6-fluoro-2-phenyl-2-((S)-pyrrolidin-2-yl)-2,3-dihydrobenzofuran-4-yl)-5-fluoro-6-(2-hydroxyethoxy)-N-methylnicotinamide]",Bulk (XRPD),[1]; 2 weeks 50° C./75% RH,No change
same,CL color,[1]; 2 weeks 50° C./75% RH,A
same,"DP[%] degradation products, Bulk (HPLC)",[1]; 2 weeks 50° C./75% RH,2.1%
same,Bulk (XRPD),"[1]; 2 weeks 80° C., 11% RH",No change
same,CL color,"[1]; 2 weeks 80° C., 11% RH",A
same,"DP[%] degradation products, Bulk (HPLC)","[1]; 2 weeks 80° C., 11% RH",5.5%
same,Bulk (XRPD),[1]; 2 weeks 80° C./75% RH,gel
same,"DP[%] degradation products, Bulk (HPLC)",[1]; 2 weeks 80° C./75% RH,15.3%
same,Bulk amber vial (XRPD),[2]; amber vial,No change
same,CL color,[2]; amber vial,A
same,"DP[%] degradation products, Bulk amber vial (HPLC)",[2]; amber vial,1.0%
same,Bulk clear vial (XPRD),[2]; clear vial,No change
same,CL color,[2]; clear vial,B
same,"DP[%] degradation products, Bulk clear vial (HPLC)",[2]; clear vial,7.4%
same,final pH,[4]; FaSSIF V2 pH 6.5,(7.98)
same,Sol. (solubility),[4]; [21],">2, mg/mL"
same,final pH,[4]; FeSSIF V2 pH 5.8,(5.93)
same,Sol. (solubility),[4]; [22],>2 mg/mL
same,final pH,[4]; SGF pH 2.0,(2.37)
same,Sol. (solubility),[4]; [23],">2, mg/mL"
same,final pH,[4]; Water,(9.26)
same,Sol. (solubility),[4]; [24],"0.28, mg/mL"
same,final pH,"[4]; pH 1.2, 100 mM HCl",(1.19)
same,Sol. (solubility),[4]; [25],>2 mg/mL
same,final pH,"[4]; pH 3.0, 50 mM citrate buffer",(3.13)
same,Sol. (solubility),[4]; [26],">2, mg/mL"
same,final pH,"[4]; pH 4.7, 50 mM acetate buffer",(4.89)
same,Sol. (solubility),[4]; [27],">2, mg/mL"
same,final pH,"[4]; pH 6.8, 50 mM phosphate buffer",(6.97)
same,final pH,[4]; [28],(6.87)
same,Sol. (solubility),[4]; [29],">2, mg/mL"
same,Sol. (solubility),[4]; [30],">2, mg/mL"
same,XRPD,[5]; After 1 day at 80% RH,No change
same,Loss on drying by TGA [%],[5]; After 1 day at 80% RH,2.0% (119° C.)
same,XRPD,[5]; After 1 day at 92% RH,No change
same,Loss on drying by TGA [%],[5]; After 1 day at 92% RH,2.5% (119° C.)
same,Loss on drying by TGA [%],[5]; [31],1.1% (119° C.)
